Measurements from ChEMBL document CHEMBL4814051, “Discovery of effective phosphodiesterase 2 inhibitors with antioxidant activities for the treatment of Alzheimer's disease” (Bioorg Med Chem Lett, 2021).

What was measured:
[1] = Antioxidant activity assessed as trolox equivalent of AAPH-induced radical scavenging activity preincubated for 15 mins followed by AAPH addition and measured every minute for 80 mins by ORAC-FL assay; format: functional; conditions: time 95.0 min
[2] = Cytotoxicity against human SH-SY5Y cells assessed as cell viability at 100 uM incubated for 48 hrs by CCK-8 method; format: cell-based; conditions: read-out: Activity
[3] = Cytotoxicity against human SH-SY5Y cells assessed as cell viability at 50 uM incubated for 48 hrs by CCK-8 method; format: cell-based; conditions: read-out: Activity

Compound: Cc1nc2ccc(/N=C/c3ccc(F)cc3O)cc2n2c(-c3ccccc3Cl)nnc12
- Activity (Trolox equivalents) [1]: 0.2

Compound: Cc1nc2ccc(/N=C/c3ccccc3O)cc2n2c(-c3ccccc3Cl)nnc12
- Activity (Trolox equivalents) [1]: 0.3

Compound: Cc1nc2ccc(NCc3cc(Cl)cc(Cl)c3O)cc2n2c(-c3ccccc3Cl)nnc12
- Activity (Trolox equivalents) [1]: 6.8

Compound: Cc1nc2ccc(NCc3cc(Br)ccc3O)cc2n2c(-c3ccccc3Cl)nnc12
- Activity (Trolox equivalents) [1]: 2.6

Compound: COc1ccc(O)c(CNc2ccc3nc(C)c4nnc(-c5ccccc5Cl)n4c3c2)c1
- Activity (Trolox equivalents) [1]: 8

Compound: COc1ccc2[nH]cc(CCNC(C)=O)c2c1
- Activity (Trolox equivalents) [1]: 2

Compound: Cc1nc2ccc(NCc3cc(OC(F)(F)F)ccc3O)cc2n2c(-c3ccccc3Cl)nnc12
- Activity (Trolox equivalents) [1]: 5.2

Compound: Cc1nc2ccc(NCc3ccc(F)cc3O)cc2n2c(-c3ccccc3Cl)nnc12
- viability at 48 h, 100 µM [2]: 39%
- viability at 48 h, 50 µM [3]: 53%
- Activity (Trolox equivalents) [1]: 8.4

Compound: Cc1nc2ccc(NCc3ccc(Cl)cn3)cc2n2c(-c3ccccc3Cl)nnc12
- Activity (Trolox equivalents) [1]: 1.9

Compound: Cc1nc2ccc(NCc3ccccn3)cc2n2c(-c3ccccc3Cl)nnc12
- Activity (Trolox equivalents) [1]: 5.5

Compound: Cc1nc2ccc(NCc3ccccc3F)cc2n2c(-c3ccccc3Cl)nnc12
- Activity (Trolox equivalents) [1]: 0.6

Compound: Cc1nc2ccc(NCc3cc(Cl)ccc3O)cc2n2c(-c3ccccc3Cl)nnc12
- Activity (Trolox equivalents) [1]: 3.9

Compound: Cc1nc2ccc(NCc3c(O)cccc3F)cc2n2c(-c3ccccc3Cl)nnc12
- viability at 48 h, 100 µM [2]: 10%
- viability at 48 h, 50 µM [3]: 23%
- Activity (Trolox equivalents) [1]: 8.6

Compound: Cc1nc2ccc(NCc3ccc(F)cc3)cc2n2c(-c3ccccc3Cl)nnc12
- Activity (Trolox equivalents) [1]: 0.2

Compound: Cc1nc2ccc(NCc3ccc(Cl)cc3O)cc2n2c(-c3ccccc3Cl)nnc12
- Activity (Trolox equivalents) [1]: 6.9

Compound: Cc1nc2ccc(NCc3ccccc3O)cc2n2c(-c3ccccc3Cl)nnc12
- Activity (Trolox equivalents) [1]: 3.7

Compound: Cc1nc2ccc(NCc3cc(F)ccc3O)cc2n2c(-c3ccccc3Cl)nnc12
- Activity (Trolox equivalents) [1]: 8.1
